Test results from patent US20250115654A1, “PHARMACEUTICAL COMPOSITION OF GLP-1 RECEPTOR AND GIP RECEPTOR DUAL AGONIST, AND USE THEREOF” (FUJIAN SHENGDI PHARMACEUTICAL CO., LTD., priority 2021, published 2025).
Numbered stars: 1 amine (or outer) side, 2 acyl side, 3 side chain; on linkers, the order of the positions; unused ones are H or OH. Square brackets hold non-standard residues; d marks the D form. Side chains are listed from the residue outwards. Peptide text beside a SMILES is read from it. * marks the point of attachment. C20 diacid = O=C(O)CCCCCCCCCCCCCCCCCCC(=O)*; γGlu = O=C(O)[C@H](CCC(=O)[*:2])N[*:1]; AEEA = NCCOCCOCC(=O)O; Aib = CC(C)(N)C(=O)O

Legend:
[1] = test system: diet-induced-obesity mice; experiment: Viscera/brain ratio for fat mass in different parts of diet-induced obesity mice; format: in vivo, C57BL/6 mice
Method: (§1) High-fat food-induced-obesity male C57BL/6 mice (weighing 35-55 g, aged 10-12 weeks, purchased from Shanghai Jiesijie Laboratory Animal Co., Ltd.) were tested. […] According to the experimental design, the body weight of each mouse was measured and recorded on day 0, day 3, day 6, and so on to day 27, the average body weight of each group of mice was calculated, and body weight change curves were plotted by taking the body weight on the first day as the standard. At the end, the fat and other visceral organs of each part of the mice were taken out and weighed, and the viscera/brain ratio for fat in each part of each mouse was calculated. The effect of the drug on the fat was determined by comparing the change in the viscera/brain ratio for fat of different parts of each group of mice.

[2] = test system: DIO mice; experiment: Food intake of DIO (diet-induced obesity) mice; format: in vivo, C57BL/6 mice
Method: as §1
The food intake of mice in each group was measured daily during the experiment.

SMILES: CC[C@H](C)[C@H](NC(=O)[C@H](CCCCN)NC(=O)[C@H](CCC(=O)O)NC(=O)[C@H](CCCCNC(=O)COCCOCCNC(=O)COCCOCCNC(=O)CC[C@H](NC(=O)CCCCCCCCCCCCCCCCCCC(=O)O)C(=O)O)NC(=O)[C@H](Cc1ccc(O)cc1)NC(=O)[C@@H](NC(=O)[C@H](CO)NC(=O)[C@H](Cc1ccc(O)cc1)NC(=O)[C@H](CC(=O)O)NC(=O)[C@H](CO)NC(=O)[C@@H](NC(=O)[C@H](Cc1ccccc1)NC(=O)[C@@H](NC(=O)CNC(=O)[C@H](CCC(=O)O)NC(=O)C(C)(C)NC(=O)[C@@H](N)Cc1ccc(O)cc1)[C@@H](C)O)[C@@H](C)O)[C@@H](C)CC)C(=O)N[C@@H](C)C(=O)N[C@@H](C)C(=O)N[C@@H](CCC(N)=O)C(=O)N[C@@H](CCC(=O)O)C(=O)N[C@@H](Cc1ccccc1)C(=O)N[C@H](C(=O)N[C@@H](CC(N)=O)C(=O)N[C@@H](Cc1c[nH]c2ccccc12)C(=O)N[C@@H](CC(C)C)C(=O)N[C@@H](CC(C)C)C(=O)N[C@@H](C)C(=O)NCC(=O)NCC(=O)N1CCC[C@H]1C(=O)N[C@@H](CO)C(=O)N[C@@H](CO)C(=O)NCC(=O)N[C@@H](C)C(=O)N1CCC[C@H]1C(=O)N1CCC[C@H]1C(=O)N1CCC[C@H]1C(=O)N[C@@H](CO)C(N)=O)C(C)C [Compound 18#] (H-Y[Aib]EGTFTSDYSIYK([AEEA-AEEA-γGlu-C20 diacid])EKIAAQEFVNWLLAGGPSSGAPPPS-NH2)
- viscera/brain ratio, Epididymal fat ([1]; 3 nmol/kg): 254.6 ± 113.4 %
- viscera/brain ratio, Inguinal fat ([1]; 3 nmol/kg): 281.5 ± 140.1 %
- viscera/brain ratio, Mesenteric fat ([1]; 3 nmol/kg): 84.8 ± 41.3 %
- viscera/brain ratio, Perirenal fat ([1]; 3 nmol/kg): 159.2 ± 87.6 %
- viscera/brain ratio, Scapular fat ([1]; 3 nmol/kg): 48 ± 15.3%
- viscera/brain ratio, Subcutaneous fat ([1]; 3 nmol/kg): 120 ± 62 %
- viscera/brain ratio, Epididymal fat ([1]; 10 nmol/kg): 211.7 ± 80.7 %
- viscera/brain ratio, Inguinal fat ([1]; 10 nmol/kg): 194.4 ± 86.2 %
- viscera/brain ratio, Mesenteric fat ([1]; 10 nmol/kg): 53.3 ± 14.6 %
- viscera/brain ratio, Perirenal fat ([1]; 10 nmol/kg): 109.4 ± 57.1 %
- viscera/brain ratio, Scapular fat ([1]; 10 nmol/kg): 42.5 ± 17^ %
- viscera/brain ratio, Subcutaneous fat ([1]; 10 nmol/kg): 122 ± 73.2 %
- viscera/brain ratio, Epididymal fat ([1]; 100 nmol/kg): 102.9 ± 32.2 %
- viscera/brain ratio, Inguinal fat ([1]; 100 nmol/kg): 92 ± 34.5 %
- viscera/brain ratio, Mesenteric fat ([1]; 100 nmol/kg): 27.4 ± 11.1 %
- viscera/brain ratio, Perirenal fat ([1]; 100 nmol/kg): 46.6 ± 18.2 %
- viscera/brain ratio, Scapular fat ([1]; 100 nmol/kg): 32.3 ± 7%
- viscera/brain ratio, Subcutaneous fat ([1]; 100 nmol/kg): 57.1 ± 21.2 %
- content of fat of each part (except scapular fat) relative to placebo group ([1]; all dose test groups): significantly reduced
- cumulative food intake ([2]; 3 nmol/kg, 28 days after the administration): 58.2 g
- daily food intake ration ([2]; 3 nmol/kg, day 1 after administration): 0.6 ± 0.1 g
- daily food intake ration ([2]; 3 nmol/kg, day 1 after administration, listed as 18#): 0.6 g
- daily food intake ration ([2]; 3 nmol/kg, day 2 after administration): 1.3 ± 0.5 g
- daily food intake ration ([2]; 3 nmol/kg, day 3 after administration): 2 ± 0.5 g
- daily food intake ration ([2]; 3 nmol/kg, day 4 after administration): 1.1 ± 0.4 g
- daily food intake ration ([2]; 3 nmol/kg, day 5 after administration): 2.2 ± 1.3 g
- daily food intake ration ([2]; 3 nmol/kg, day 6 after administration): 2.1 ± 1.1 g
- daily food intake ration ([2]; 3 nmol/kg, day 7 after administration): 1.1 ± 0.6 g
- daily food intake ration ([2]; 3 nmol/kg, day 8 after administration): 1.6 ± 0.6 g
- daily food intake ration ([2]; 3 nmol/kg, day 9 after administration): 2.5 ± 0.9 g
- daily food intake ration ([2]; 3 nmol/kg, day 10 after administration): 1.3 ± 0.6 g
- daily food intake ration ([2]; 3 nmol/kg, day 11 after administration): 2 ± 0.3 g
- daily food intake ration ([2]; 3 nmol/kg, day 12 after administration): 3 ± 1 g
- daily food intake ration ([2]; 3 nmol/kg, day 13 after administration): 1.8 ± 1 g
- daily food intake ration ([2]; 3 nmol/kg, day 14 after administration): 2.3 ± 1 g
- daily food intake ration ([2]; 3 nmol/kg, day 15 after administration): 2.9 ± 0.7 g
- daily food intake ration ([2]; 3 nmol/kg, day 16 after administration): 1.5 ± 0.7 g
- daily food intake ration ([2]; 3 nmol/kg, day 17 after administration): 2.2 ± 0.5 g
- daily food intake ration ([2]; 3 nmol/kg, day 18 after administration): 2.7 ± 0.3 g
- daily food intake ration ([2]; 3 nmol/kg, day 19 after administration): 1.7 ± 0.5 g
- daily food intake ration ([2]; 3 nmol/kg, day 20 after administration): 2.2 ± 0.5 g
- daily food intake ration ([2]; 3 nmol/kg, day 21 after administration): 3.4 ± 0.4 g
- daily food intake ration ([2]; 3 nmol/kg, day 22 after administration): 1.8 ± 0.5 g
- daily food intake ration ([2]; 3 nmol/kg, day 23 after administration): 2.6 ± 0.4 g
- daily food intake ration ([2]; 3 nmol/kg, day 24 after administration): 2.9 ± 0.5 g
- daily food intake ration ([2]; 3 nmol/kg, day 25 after administration): 1.8 ± 0.8 g
- daily food intake ration ([2]; 3 nmol/kg, day 26 after administration): 2.5 ± 0.9 g
- daily food intake ration ([2]; 3 nmol/kg, day 27 after administration): 3.9 ± 0.5 g
- daily food intake ration ([2]; 3 nmol/kg, day 28 after administration): 1.3 ± 0.6 g
- cumulative food intake ([2]; 3 nmol/kg, within 5 days after the administration): 7.2 g
- cumulative food intake ([2]; 10 nmol/kg, 28 days after the administration): 46.8 g
- daily food intake ration ([2]; 10 nmol/kg, day 1 after administration): 0.3 ± 0.2 g
- daily food intake ration ([2]; 10 nmol/kg, day 1 after administration, listed as 18#): 0.3 g
- daily food intake ration ([2]; 10 nmol/kg, day 2 after administration): 0.6 ± 0.6 g
- daily food intake ration ([2]; 10 nmol/kg, day 3 after administration): 1.1 ± 0.7 g
- daily food intake ration ([2]; 10 nmol/kg, day 4 after administration): 0.7 ± 0.5 g
- daily food intake ration ([2]; 10 nmol/kg, day 5 after administration): 1.1 ± 0.5 g
- daily food intake ration ([2]; 10 nmol/kg, day 6 after administration): 1.5 ± 0.8 g
- daily food intake ration ([2]; 10 nmol/kg, day 7 after administration): 0.8 ± 0.4 g
- daily food intake ration ([2]; 10 nmol/kg, day 8 after administration): 1.1 ± 0.7 g
- daily food intake ration ([2]; 10 nmol/kg, day 9 after administration): 2 ± 0.6 g
- daily food intake ration ([2]; 10 nmol/kg, day 10 after administration): 0.9 ± 0.4 g
- daily food intake ration ([2]; 10 nmol/kg, day 11 after administration): 1.8 ± 0.8 g
- daily food intake ration ([2]; 10 nmol/kg, day 12 after administration): 2.4 ± 0.6 g
- daily food intake ration ([2]; 10 nmol/kg, day 13 after administration): 0.9 ± 0.4 g
- daily food intake ration ([2]; 10 nmol/kg, day 14 after administration): 1.7 ± 0.7 g
- daily food intake ration ([2]; 10 nmol/kg, day 15 after administration): 3 ± 0.9 g
- daily food intake ration ([2]; 10 nmol/kg, day 16 after administration): 1.2 ± 1 g
- daily food intake ration ([2]; 10 nmol/kg, day 17 after administration): 2.1 ± 0.9 g
- daily food intake ration ([2]; 10 nmol/kg, day 18 after administration): 2.9 ± 0.8 g
- daily food intake ration ([2]; 10 nmol/kg, day 19 after administration): 1.3 ± 0.5 g
- daily food intake ration ([2]; 10 nmol/kg, day 20 after administration): 2 ± 0.5 g
- daily food intake ration ([2]; 10 nmol/kg, day 21 after administration): 3.2 ± 0.6 g
- daily food intake ration ([2]; 10 nmol/kg, day 22 after administration): 1 ± 0.4 g
- daily food intake ration ([2]; 10 nmol/kg, day 23 after administration): 2.3 ± 0.5 g
- daily food intake ration ([2]; 10 nmol/kg, day 24 after administration): 2.5 ± 0.6 g
- daily food intake ration ([2]; 10 nmol/kg, day 25 after administration): 1.6 ± 1.2 g
- daily food intake ration ([2]; 10 nmol/kg, day 26 after administration): 2.2 ± 0.8 g
- daily food intake ration ([2]; 10 nmol/kg, day 27 after administration): 3.6 ± 1^ g
- daily food intake ration ([2]; 10 nmol/kg, day 28 after administration): 1 ± 0.5 g
- cumulative food intake ([2]; 10 nmol/kg, within 5 days after the administration): 3.9 g
- cumulative food intake ([2]; 100 nmol/kg, 28 days after the administration): 36.7 g
- daily food intake ration ([2]; 100 nmol/kg, day 1 after administration): 0.2 ± 0.1 g
- daily food intake ration ([2]; 100 nmol/kg, day 1 after administration, listed as 18#): 0.2 g
- daily food intake ration ([2]; 100 nmol/kg, day 2 after administration): 0.1 ± 0.1 g
- daily food intake ration ([2]; 100 nmol/kg, day 3 after administration): 0.4 ± 0.1 g
- daily food intake ration ([2]; 100 nmol/kg, day 4 after administration): 0.4 ± 0.2 g
- daily food intake ration ([2]; 100 nmol/kg, day 5 after administration): 0.6 ± 0.2 g
- daily food intake ration ([2]; 100 nmol/kg, day 6 after administration): 0.7 ± 0.3 g
- daily food intake ration ([2]; 100 nmol/kg, day 7 after administration): 0.5 ± 0.2 g
- daily food intake ration ([2]; 100 nmol/kg, day 8 after administration): 0.7 ± 0.5 g
- daily food intake ration ([2]; 100 nmol/kg, day 9 after administration): 0.9 ± 0.6 g
- daily food intake ration ([2]; 100 nmol/kg, day 10 after administration): 0.9 ± 0.6 g
- daily food intake ration ([2]; 100 nmol/kg, day 11 after administration): 1.1 ± 0.5 g
- daily food intake ration ([2]; 100 nmol/kg, day 12 after administration): 2 ± 1 g
- daily food intake ration ([2]; 100 nmol/kg, day 13 after administration): 1.3 ± 0.7 g
- daily food intake ration ([2]; 100 nmol/kg, day 14 after administration): 1.7 ± 0.5 g
- daily food intake ration ([2]; 100 nmol/kg, day 15 after administration): 2 ± 0.4 g
- daily food intake ration ([2]; 100 nmol/kg, day 16 after administration): 1 ± 0.3 g
- daily food intake ration ([2]; 100 nmol/kg, day 17 after administration): 1.6 ± 0.3 g
- daily food intake ration ([2]; 100 nmol/kg, day 18 after administration): 2 ± 0.4 g
- daily food intake ration ([2]; 100 nmol/kg, day 19 after administration): 1.4 ± 0.2 g
- daily food intake ration ([2]; 100 nmol/kg, day 20 after administration): 1.8 ± 0.3 g
- daily food intake ration ([2]; 100 nmol/kg, day 21 after administration): 2.4 ± 0.3 g
- daily food intake ration ([2]; 100 nmol/kg, day 22 after administration): 1.4 ± 0.5 g
- daily food intake ration ([2]; 100 nmol/kg, day 23 after administration): 2.1 ± 0.5 g
- daily food intake ration ([2]; 100 nmol/kg, day 24 after administration): 2.3 ± 0.4 g
- daily food intake ration ([2]; 100 nmol/kg, day 25 after administration): 1.5 ± 0.3 g
- daily food intake ration ([2]; 100 nmol/kg, day 26 after administration): 1.6 ± 0.4 g
- daily food intake ration ([2]; 100 nmol/kg, day 27 after administration): 2.8 ± 0.3 g
- daily food intake ration ([2]; 100 nmol/kg, day 28 after administration): 1.2 ± 0.4 g
- cumulative food intake ([2]; 100 nmol/kg, within 5 days after the administration): 1.8 g
